Test results: patent US9365583B2, “Substituted pyrazoles and uses thereof” (Genentech, Inc., priority 2013, dated 2016)

The compounds below were run against T1, N-terminally GST-tagged DLK (catalytic domain amino acid 1-520) (Homo sapiens, UniProt Q12852) (assay: DLK TR-FRET inhibition assay). Settings: 5 nM GST-DLK, 40 nM HIS-MKK4 K131M substrate, 30 μM ATP, 60 minutes at ambient temperature.
T1 construct: N-terminally GST-tagged DLK (catalytic domain amino acid 1-520); purchased Carna Bioscience
T1 sequence (Q12852 1-520): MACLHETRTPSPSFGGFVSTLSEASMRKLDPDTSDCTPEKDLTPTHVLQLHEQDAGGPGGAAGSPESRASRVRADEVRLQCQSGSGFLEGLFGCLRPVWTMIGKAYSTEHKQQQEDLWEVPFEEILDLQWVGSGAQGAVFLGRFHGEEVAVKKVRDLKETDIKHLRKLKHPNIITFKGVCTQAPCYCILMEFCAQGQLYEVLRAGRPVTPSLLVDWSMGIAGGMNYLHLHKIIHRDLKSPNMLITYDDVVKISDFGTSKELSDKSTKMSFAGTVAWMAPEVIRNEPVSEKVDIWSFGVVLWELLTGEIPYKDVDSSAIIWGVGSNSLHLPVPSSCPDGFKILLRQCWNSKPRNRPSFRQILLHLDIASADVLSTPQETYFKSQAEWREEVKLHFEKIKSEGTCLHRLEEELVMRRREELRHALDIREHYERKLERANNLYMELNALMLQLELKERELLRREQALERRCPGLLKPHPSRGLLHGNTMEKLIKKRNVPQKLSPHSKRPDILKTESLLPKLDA
Format: biochemical
Summary of the method: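 Phosphorylated MKK4 was quantified by TR-FRET (Eu-labelled anti-phospho-MKK4, D2 anti-HIS; 3 h, 665 and 615 nm emission) after EDTA quench. Reactions held 5 nM GST-tagged DLK catalytic domain (1-520), 40 nM HIS-MKK4 K131M substrate, 30 μM ATP and compound (3-fold series from 20 uM), 60 min, room temperature, pH 7.5.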

| Structure (SMILES) | Ki [nM] |
| --- | --- |
| CC(C)n1nc(-c2cnc(N)c(OC(F)F)c2)cc1[C@H]1[C@@H]2C[C@@H](F)C[C@@H]21 [compound 217, 3-(difluoromethoxy)-5-(5-((1R,3s,5S,6r)-3-fluorobicyclo[3.1.0]hexan-6-yl)-1-isopropyl-1H-pyrazol-3-yl)pyridin-2-amine] | 4.2 |
| CC(C)n1nc(-c2cnc(N)c(OC(F)(F)F)c2)cc1[C@H]1[C@@H]2C[C@@H](N3CC4(CN(C)CCO4)C3)C[C@@H]21 [compound 219, 5-(1-isopropyl-5-((1R,3s,5S,6r)-3-(8-methyl-5-oxa-2,8-diazaspiro [3.5]nonan-2-yl)bicyclo[3.1.0]hexan-6-yl)-1H-pyrazol-3-yl)-3-(trifluoromethoxy)pyridin-2-amine] | 2.2 |
| CC(C)n1nc(-c2cnc(N)c(OC(F)(F)F)c2)cc1[C@H]1[C@@H]2C[C@H](N3CC4(CN(C)CCO4)C3)C[C@@H]21 [compound 220, 5-(1-isopropyl-5-((1R,3r,5S,6r)-3-(8-methyl-5-oxa-2,8-diazaspiro [3.5]nonan-2-yl)bicyclo[3.1.0]hexan-6-yl)-1H-pyrazol-3-yl)-3-(trifluoromethoxy)pyridin-2-amine] | 2.1 |
| CC(C)n1nc(-c2cnc(N)c(OC(F)(F)F)c2)cc1[C@H]1[C@@H]2C[C@@H](N3CC4(CCCO4)C3)C[C@@H]21 [compound 221, 5-(5-((1R,3s,5S,6r)-3-(5-oxa-2-azaspiro[3.4]octan-2-yl)bicyclo [3.1.0]hexan-6-yl)-1-isopropyl-1H-pyrazol-3-yl)-3-(trifluoromethoxy) pyridin-2-amine] | 2 |
| CC(C)n1nc(-c2cnc(N)c(C(F)(F)F)c2)cc1[C@H]1[C@@H]2C[C@@H](N3CC4(CCCO4)C3)C[C@@H]21 [compound 222, 5-(5-((1R,3s,5S,6r)-3-(5-oxa-2-azaspiro[3.4]octan-2-yl)bicyclo [3.1.0]hexan-6-yl)-1-isopropyl-1H-pyrazol-3-yl)-3-(trifluoromethyl) pyridin-2-amine] | 2.7 |
| CC(C)n1nc(-c2cnc(N)c(OC(F)F)c2)cc1[C@H]1[C@@H]2C[C@@H](N3CC4(CCCO4)C3)C[C@@H]21 [compound 223, 5-(5-((1R,3s,5S,6r)-3-(5-oxa-2-azaspiro[3.4]octan-2-yl)bicyclo [3.1.0]hexan-6-yl)-1-isopropyl-1H-pyrazol-3-yl)-3-(difluoro-methoxy)pyridin-2-amine] | 2.6 |

Other lines, results leading:

| Ki [nM] | Structure (SMILES) |
| --- | --- |
| 3.8 | CC(C)n1nc(-c2cnc(N)c(OC(F)F)c2)cc1[C@H]1[C@@H]2C[C@@H](N3CC4(CN(C)CCO4)C3)C[C@@H]21 [compound 224, 3-(difluoromethoxy)-5-(1-isopropyl-5-((1R,3s,5S,6r)-3-(8-methyl-5-oxa-2,8-diazaspiro[3.5]nonan-2-yl)bicyclo[3.1.0]hexan-6-yl)-1H-pyrazol-3-yl)pyridin-2-amine] |
| 4.2 | CC(C)n1nc(-c2cnc(N)c(OC(F)F)c2)cc1[C@H]1[C@@H]2C[C@H](N3CC4(CCCO4)C3)C[C@@H]21 [compound 225, 5-(5-((1R,3r,5S,6r)-3-(5-oxa-2-azaspiro[3.4]octan-2-yl)bicyclo [3.1.0]hexan-6-yl)-1-isopropyl-1H-pyrazol-3-yl)-3-(difluoro-methoxy)pyridin-2-amine] |
| 3.2 | CC(C)n1nc(-c2cnc(N)c(OC(F)(F)F)c2)cc1[C@H]1[C@@H]2C[C@H](N3CC4(CCCO4)C3)C[C@@H]21 [compound 226, 5-(5-((1R,3r,5S,6r)-3-(5-oxa-2-azaspiro[3.4]octan-2-yl)bicyclo [3.1.0]hexan-6-yl)-1-isopropyl-1H-pyrazol-3-yl)-3-(trifluoro-methoxy)pyridin-2-amine] |
| 4.5 | CC(C)n1nc(-c2cnc(N)c(C(F)(F)F)c2)cc1[C@H]1[C@@H]2C[C@H](N3CC4(CCCO4)C3)C[C@@H]21 [compound 227, 5-(5-((1R,3r,5S,6r)-3-(5-oxa-2-azaspiro[3.4]octan-2-yl)bicyclo [3.1.0]hexan-6-yl)-1-isopropyl-1H-pyrazol-3-yl)-3-(trifluoro-methyl)pyridin-2-amine] |
